Experimental data published in patent US20240158446A1, “CYCLIC COMPOUND HAVING SELECTIVE INHIBITORY ACTION ON KRAS OVER HRAS AND NRAS” (CHUGAI SEIYAKU KABUSHIKI KAISHA, priority 2021, published 2024).

Experiments:
[1] = target: GDP-bound HRAS wild-type protein (Homo sapiens, UniProt P01112); assay: Binding to HRAS by surface plasmon resonance (SPR), Single Cycle Kinetics; details: SPR, GDP-bound HRAS wild-type protein vs GDP-bound KRAS wild-type protein
[2] = target: GDP-bound KRAS wild-type protein (Homo sapiens, UniProt P01116); assay: Binding to KRAS by surface plasmon resonance (SPR), Single Cycle Kinetics; details: SPR, Single Cycle Kinetics, GDP-bound KRAS wild-type protein; read-out: KRAS KD
[3] = target: GDP-bound NRAS wild-type protein (Homo sapiens, UniProt P01111); assay: Binding to NRAS by surface plasmon resonance (SPR), Single Cycle Kinetics; details: SPR, GDP-bound NRAS wild-type protein vs GDP-bound KRAS wild-type protein
Sequence of GDP-bound NRAS wild-type protein (P01111 whole entry): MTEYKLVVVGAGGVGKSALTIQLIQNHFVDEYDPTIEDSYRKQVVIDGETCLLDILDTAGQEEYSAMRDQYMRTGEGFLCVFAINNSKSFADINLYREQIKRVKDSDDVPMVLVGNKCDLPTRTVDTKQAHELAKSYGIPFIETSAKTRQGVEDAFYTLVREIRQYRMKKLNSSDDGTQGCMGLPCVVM

Sequence of GDP-bound HRAS wild-type protein (P01112 whole entry): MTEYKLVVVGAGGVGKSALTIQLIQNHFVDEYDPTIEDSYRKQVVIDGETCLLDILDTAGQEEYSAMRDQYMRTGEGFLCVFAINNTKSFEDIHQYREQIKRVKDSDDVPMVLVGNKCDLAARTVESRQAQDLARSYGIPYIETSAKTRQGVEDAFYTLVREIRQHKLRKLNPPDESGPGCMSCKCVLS
Sequence of GDP-bound KRAS wild-type protein (P01116 whole entry): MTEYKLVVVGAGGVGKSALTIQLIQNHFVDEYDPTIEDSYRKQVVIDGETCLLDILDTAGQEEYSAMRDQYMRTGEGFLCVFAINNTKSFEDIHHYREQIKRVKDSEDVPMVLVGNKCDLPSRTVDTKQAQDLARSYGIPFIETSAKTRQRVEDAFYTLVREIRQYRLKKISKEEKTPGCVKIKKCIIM

CCO[C@@H]1C[C@H]2C(=O)NC3(CCC3)C(=O)N(C)[C@@H](C3CCCC3)C(=O)N(C)[C@H](C(=O)N(C)C)CC(=O)N(C)[C@@H](CC)C(=O)N[C@@H]([C@@H](C)CC)C(=O)N3CC[C@H]3C(=O)N(C)[C@H]3C[C@@H](C)CCN(C3=O)[C@@H](Cc3ccc(C(F)(F)F)cc3)C(=O)N(C)CC(=O)N[C@@H](CCc3cc(F)c(C(F)(F)F)c(F)c3)C(=O)N2C1 [PP1021]
HRAS/KRAS (ratio of KD value for HRAS to KD value for KRAS) [1]: B (a compound having 3 or more and less than 10 is denoted as B) | Kd [2]: 57 pM | NRAS/KRAS (ratio of KD value for NRAS to KD value for KRAS) [3]: C (A compound having a KD ratio of 0.1 or more and less than 3 is denoted as C)

CCO[C@@H]1C[C@H]2C(=O)NC3(CCCC3)C(=O)N(C)[C@@H](C3CCCC3)C(=O)N(C)[C@H](C(=O)N(C)C)CC(=O)N(C)[C@@H](CC)C(=O)N[C@@H]([C@@H](C)CC)C(=O)N(C)CC(=O)N(C)[C@H]3C[C@@H](C)CCN(C3=O)[C@@H](Cc3ccc(C(F)(F)F)cc3)C(=O)N(C)CC(=O)N[C@@H](CCc3cc(F)c(C(F)(F)F)c(F)c3)C(=O)N2C1 [PP1022]
HRAS/KRAS (ratio of KD value for HRAS to KD value for KRAS) [1]: B (a compound having 3 or more and less than 10 is denoted as B) | Kd [2]: 36 pM | NRAS/KRAS (ratio of KD value for NRAS to KD value for KRAS) [3]: C (A compound having a KD ratio of 0.1 or more and less than 3 is denoted as C)

CCO[C@@H]1C[C@H]2C(=O)NC3(CCCC3)C(=O)N(C)[C@@H](C3CCCC3)C(=O)N(C)[C@H](C(=O)N3CCOCC3)CC(=O)N(C)[C@@H](CC(C)C)C(=O)N[C@@H]([C@@H](C)CC)C(=O)N(C)CC(=O)N(C)[C@H]3C[C@@H](C)CCN(C3=O)[C@@H](Cc3ccc(C(F)(F)F)cc3)C(=O)N(C)CC(=O)N[C@@H](CCc3cc(F)c(C(F)(F)F)c(F)c3)C(=O)N2C1 [PP1024]
HRAS/KRAS (ratio of KD value for HRAS to KD value for KRAS) [1]: B (a compound having 3 or more and less than 10 is denoted as B) | Kd [2]: 88 pM | NRAS/KRAS (ratio of KD value for NRAS to KD value for KRAS) [3]: B (a compound having 3 or more and less than 10 is denoted as B)

CCO[C@@H]1C[C@H]2C(=O)NC3(CCC3)C(=O)N(C)[C@@H](C3CCCC3)C(=O)N(C)[C@H](C(=O)N3CCOCC3)CC(=O)N(C)[C@@H](CC(C)C)C(=O)N[C@@H]([C@@H](C)CC)C(=O)N(C)CC(=O)N(C)[C@H]3C[C@@H](C)CCN(C3=O)[C@@H](Cc3ccc(C(F)(F)F)cc3)C(=O)N(C)CC(=O)N[C@@H](CCc3cc(F)c(C(F)(F)F)c(F)c3)C(=O)N2C1 [PP1025]
HRAS/KRAS (ratio of KD value for HRAS to KD value for KRAS) [1]: B (a compound having 3 or more and less than 10 is denoted as B) | Kd [2]: 56 pM | NRAS/KRAS (ratio of KD value for NRAS to KD value for KRAS) [3]: C (A compound having a KD ratio of 0.1 or more and less than 3 is denoted as C)

CCO[C@@H]1C[C@H]2C(=O)NC3(CCC3)C(=O)N(C)[C@@H](C3CCCC3)C(=O)N(C)[C@H](C(=O)N3CCOCC3)CC(=O)N(C)[C@@H](CC)C(=O)N[C@@H]([C@@H](C)CC)C(=O)N(C)CC(=O)N(C)[C@H]3C[C@@H](C)CCN(C3=O)[C@@H](Cc3ccc(C(F)(F)F)cc3)C(=O)N(C)CC(=O)N[C@@H](CCc3cc(F)c(C(F)(F)F)c(F)c3)C(=O)N2C1 [PP1027]
HRAS/KRAS (ratio of KD value for HRAS to KD value for KRAS) [1]: B (a compound having 3 or more and less than 10 is denoted as B) | Kd [2]: 56 pM | NRAS/KRAS (ratio of KD value for NRAS to KD value for KRAS) [3]: C (A compound having a KD ratio of 0.1 or more and less than 3 is denoted as C)

CCO[C@@H]1C[C@H]2C(=O)NC3(CCC3)C(=O)N(C)[C@@H](C3CCCC3)C(=O)N(C)[C@H](C(=O)N3CCOCC3)CC(=O)N(C)[C@@H](CC)C(=O)N[C@@H]([C@@H](C)CC)C(=O)N3CC[C@H]3C(=O)N(C)[C@H]3C[C@@H](C)CCN(C3=O)[C@@H](Cc3ccc(C(F)(F)F)cc3)C(=O)N(C)CC(=O)N[C@@H](CCc3cc(F)c(C(F)(F)F)c(F)c3)C(=O)N2C1 [PP1028]
HRAS/KRAS (ratio of KD value for HRAS to KD value for KRAS) [1]: B (a compound having 3 or more and less than 10 is denoted as B) | Kd [2]: 99 pM | NRAS/KRAS (ratio of KD value for NRAS to KD value for KRAS) [3]: B (a compound having 3 or more and less than 10 is denoted as B)

CCO[C@@H]1C[C@H]2C(=O)NC3(CCCC3)C(=O)N(C)[C@@H](C3CCCC3)C(=O)N(C)[C@H](C(=O)N3CCOCC3)CC(=O)N(C)[C@@H](CC)C(=O)N[C@@H]([C@@H](C)CC)C(=O)N(C)CC(=O)N(C)[C@H]3C[C@@H](C)CCN(C3=O)[C@@H](Cc3ccc(C(F)(F)F)cc3)C(=O)N(C)CC(=O)N[C@@H](CCc3cc(F)c(C(F)(F)F)c(F)c3)C(=O)N2C1 [PP1029]
HRAS/KRAS (ratio of KD value for HRAS to KD value for KRAS) [1]: B (a compound having 3 or more and less than 10 is denoted as B) | Kd [2]: 78 pM | NRAS/KRAS (ratio of KD value for NRAS to KD value for KRAS) [3]: C (A compound having a KD ratio of 0.1 or more and less than 3 is denoted as C)

CCO[C@@H]1C[C@H]2C(=O)NC3(CCCC3)C(=O)N(C)[C@@H](C3CCCC3)C(=O)N(C)[C@H](C(=O)N(C)C)CC(=O)N(C)[C@@H](CC(C)C)C(=O)N[C@@H]([C@@H](C)CC)C(=O)N(C)CC(=O)N(C)[C@H]3CC(C)=CCN(C3=O)[C@@H](Cc3ccc(C(F)(F)F)cc3)C(=O)N(C)CC(=O)N[C@@H](CCc3cc(F)c(C(F)(F)F)c(F)c3)C(=O)N2C1 [PP1031]
HRAS/KRAS (ratio of KD value for HRAS to KD value for KRAS) [1]: C (A compound having a KD ratio of 0.1 or more and less than 3 is denoted as C) | Kd [2]: 670 pM | NRAS/KRAS (ratio of KD value for NRAS to KD value for KRAS) [3]: C (A compound having a KD ratio of 0.1 or more and less than 3 is denoted as C)

CCO[C@@H]1C[C@H]2C(=O)NC3(CCC3)C(=O)N(C)[C@@H](C3CCCC3)C(=O)N(C)[C@H](C(=O)N(C)C)CC(=O)N(C)[C@@H](CC(C)C)C(=O)N[C@@H]([C@@H](C)CC)C(=O)N3CC[C@H]3C(=O)N(C)[C@H]3CC(C)=CCN(C3=O)[C@@H](Cc3ccc(C(F)(F)F)cc3)C(=O)N(C)CC(=O)N[C@@H](CCc3cc(F)c(C(F)(F)F)c(F)c3)C(=O)N2C1 [PP1033]
HRAS/KRAS (ratio of KD value for HRAS to KD value for KRAS) [1]: C (A compound having a KD ratio of 0.1 or more and less than 3 is denoted as C) | Kd [2]: 430 pM | NRAS/KRAS (ratio of KD value for NRAS to KD value for KRAS) [3]: C (A compound having a KD ratio of 0.1 or more and less than 3 is denoted as C)

CCO[C@@H]1C[C@H]2C(=O)NC3(CCC3)C(=O)N(C)[C@@H](C3CCCC3)C(=O)N(C)[C@H](C(=O)N(C)C)CC(=O)N(C)[C@@H](CC)C(=O)N[C@@H]([C@@H](C)CC)C(=O)N(C)CC(=O)N(C)[C@H]3CC(C)=CCN(C3=O)[C@@H](Cc3ccc(C(F)(F)F)cc3)C(=O)N(C)CC(=O)N[C@@H](CCc3cc(F)c(C(F)(F)F)c(F)c3)C(=O)N2C1 [PP1034]
HRAS/KRAS (ratio of KD value for HRAS to KD value for KRAS) [1]: C (A compound having a KD ratio of 0.1 or more and less than 3 is denoted as C) | Kd [2]: 430 pM | NRAS/KRAS (ratio of KD value for NRAS to KD value for KRAS) [3]: C (A compound having a KD ratio of 0.1 or more and less than 3 is denoted as C)

CCO[C@@H]1C[C@H]2C(=O)NC3(CCC3)C(=O)N(C)[C@@H](C3CCCC3)C(=O)N(C)[C@H](C(=O)N(C)C)CC(=O)N(C)[C@@H](CC)C(=O)N[C@@H]([C@@H](C)CC)C(=O)N3CC[C@H]3C(=O)N(C)[C@H]3CC(C)=CCN(C3=O)[C@@H](Cc3ccc(C(F)(F)F)cc3)C(=O)N(C)CC(=O)N[C@@H](CCc3cc(F)c(C(F)(F)F)c(F)c3)C(=O)N2C1 [PP1035]
HRAS/KRAS (ratio of KD value for HRAS to KD value for KRAS) [1]: C (A compound having a KD ratio of 0.1 or more and less than 3 is denoted as C) | Kd [2]: 520 pM | NRAS/KRAS (ratio of KD value for NRAS to KD value for KRAS) [3]: C (A compound having a KD ratio of 0.1 or more and less than 3 is denoted as C)

CCO[C@@H]1C[C@H]2C(=O)NC3(CCCC3)C(=O)N(C)[C@@H](C3CCCC3)C(=O)N(C)[C@H](C(=O)N(C)C)CC(=O)N(C)[C@@H](CC)C(=O)N[C@@H]([C@@H](C)CC)C(=O)N(C)CC(=O)N(C)[C@H]3CC(C)=CCN(C3=O)[C@@H](Cc3ccc(C(F)(F)F)cc3)C(=O)N(C)CC(=O)N[C@@H](CCc3cc(F)c(C(F)(F)F)c(F)c3)C(=O)N2C1 [PP1036]
HRAS/KRAS (ratio of KD value for HRAS to KD value for KRAS) [1]: C (A compound having a KD ratio of 0.1 or more and less than 3 is denoted as C) | Kd [2]: 750 pM | NRAS/KRAS (ratio of KD value for NRAS to KD value for KRAS) [3]: C (A compound having a KD ratio of 0.1 or more and less than 3 is denoted as C)

CCO[C@@H]1C[C@H]2C(=O)NC3(CCCC3)C(=O)N(C)[C@@H](C3CCCC3)C(=O)N(C)[C@H](C(=O)N3CCOCC3)CC(=O)N(C)[C@@H](CC(C)C)C(=O)N[C@@H]([C@@H](C)CC)C(=O)N(C)CC(=O)N(C)[C@H]3CC(C)=CCN(C3=O)[C@@H](Cc3ccc(C(F)(F)F)cc3)C(=O)N(C)CC(=O)N[C@@H](CCc3cc(F)c(C(F)(F)F)c(F)c3)C(=O)N2C1 [PP1038]
HRAS/KRAS (ratio of KD value for HRAS to KD value for KRAS) [1]: C (A compound having a KD ratio of 0.1 or more and less than 3 is denoted as C) | Kd [2]: 3000 pM | NRAS/KRAS (ratio of KD value for NRAS to KD value for KRAS) [3]: C (A compound having a KD ratio of 0.1 or more and less than 3 is denoted as C)

CCO[C@@H]1C[C@H]2C(=O)NC3(CCC3)C(=O)N(C)[C@@H](C3CCCC3)C(=O)N(C)[C@H](C(=O)N3CCOCC3)CC(=O)N(C)[C@@H](CC(C)C)C(=O)N[C@@H]([C@@H](C)CC)C(=O)N3CC[C@H]3C(=O)N(C)[C@H]3CC(C)=CCN(C3=O)[C@@H](Cc3ccc(C(F)(F)F)cc3)C(=O)N(C)CC(=O)N[C@@H](CCc3cc(F)c(C(F)(F)F)c(F)c3)C(=O)N2C1 [PP1040]
HRAS/KRAS (ratio of KD value for HRAS to KD value for KRAS) [1]: C (A compound having a KD ratio of 0.1 or more and less than 3 is denoted as C) | Kd [2]: 1200 pM | NRAS/KRAS (ratio of KD value for NRAS to KD value for KRAS) [3]: C (A compound having a KD ratio of 0.1 or more and less than 3 is denoted as C)

CCO[C@@H]1C[C@H]2C(=O)NC3(CCC3)C(=O)N(C)[C@@H](C3CCCC3)C(=O)N(C)[C@H](C(=O)N3CCOCC3)CC(=O)N(C)[C@@H](CC)C(=O)N[C@@H]([C@@H](C)CC)C(=O)N(C)CC(=O)N(C)[C@H]3CC(C)=CCN(C3=O)[C@@H](Cc3ccc(C(F)(F)F)cc3)C(=O)N(C)CC(=O)N[C@@H](CCc3cc(F)c(C(F)(F)F)c(F)c3)C(=O)N2C1 [PP1041]
HRAS/KRAS (ratio of KD value for HRAS to KD value for KRAS) [1]: C (A compound having a KD ratio of 0.1 or more and less than 3 is denoted as C) | Kd [2]: 570 pM | NRAS/KRAS (ratio of KD value for NRAS to KD value for KRAS) [3]: C (A compound having a KD ratio of 0.1 or more and less than 3 is denoted as C)
